Measured values taken from US20260284422A1, “BRAIN TUMOR TREATMENT OR PREVENTION OF RECURRENCE WITH LOW INTENSITY AND VARIABLE FREQUENCY MAGNETIC STIMULATION” (ACTIPULSE NEUROSCIENCE INC., priority 2023, published 2026).

Assay: Evans Blue dye uptake into brain (BBB permeability) in mice given rTMS or sham
Assay type: in vivo, wild-type C57BL/6 mice
From the text: An in vivo mouse model was used to evaluate the use of rTMS to open the BBB. Ten wild-type C57BL/6 mice where anesthetized and received an intravenous (IV) injection of a 2% Evans Blue dye (in a vehicle of 0.9% NaCl). Evans Blue dye (also referred to as EBD or T-1824) is a non-toxic, azo-based injectable dye that presents visually with a dark blue/brown color. The dye has an affinity for serum albumin and is generally used to assess the permeability of the BBB in vivo. Most tissues will present darker, but neural tissue generally remains unstained. Mice injected with Evans Blue dye were then administered rTMS or a sham treatment and a histological analysis of the brain was performed to evaluate changes in permeability of the BBB. rTMS was administered according to Table 1.
The dye was administered as 100 μL 2% Evans blue (in 0.9% NaCl) via retro orbital injection. Mice were then administered rTMS or a sham (no magnetic field), e.g., as shown in the method overview depicted in FIGS. 2 and 3 for either 1 hr. or 30 min. Mice were euthanized, perfused with 10 mL PBS to expel blood from the organs, and analyzed for the presence of hemorrhage and lesion, e.g., as shown in the representative imaging in FIG. 3. Mice presented as lacking hemorrhage, lesion, or any signs of tissue damage.
Brains were then submerged in 20% sucrose for 2 hr. and embedded in optimal cutting temperature compound (OCT compound) and frozen. The brain was then sectioned at 16 μm thickness, rinsed with PBS, and mounted for scanning at 40× magnification. Section imaging was performed using a digital slide scanner.
An imaging software was used to evaluate the pixelate density and area of staining in brain sections for calculating a comparison of Evans Blue dye uptake into the brain tissue.

In the case of `Cc1cc(-c2ccc(/N=N/c3ccc4c(S(=O)(=O)O)cc(S(=O)(=O)O)c(N)c4c3O)c(C)c2)ccc1/N=N/c1ccc2c(S(=O)(=O)O)cc(S(=O)(=O)O)c(N)c2c1O` [Evans Blue, Evans Blue dye], the “Mean area of brain section stained with Evans Blue, rTMS group” value (100 μL 2% Evans blue retro-orbital, then rTMS, 16 μm brain sections, n=4) is reported as 11.12 mm^2, the “Mean area of brain section stained with Evans Blue, sham group” value (100 μL 2% Evans blue retro-orbital, then sham (no magnetic field), 16 μm brain sections, n=4) is reported as 5.665 mm^2 and the “Difference between means ± SEM of stained area (rTMS vs sham)” value (unpaired t-test, P 0.004, n=4 per group) is reported as 5.456 ± 1.209 mm^2.
